In patent publication US11351095B2, “Stabilized emulsions with acidic agents” (Avon Products, Inc., priority 2018, dated 2022):

Experiment: First normal stress difference of glycerin phases (AR-G2 rheometer)
Assay type: physicochemical
Description: The first normal stress difference of several glycerin phases (“Phase”) was measured prior to emulsification. A TA Instruments AR-G2 Rheometer was used to perform viscosity measurements for each of the phases A-E and a 100% glycerin phase using a 2 degree cone and plate geometry and a 52 micron gap. Measurements were taken at a shear stress of 100 Pa and 25° C. (77° F.).

- First Normal Stress Difference (N1 = 2 × Je × η^2 × γ^2, Pa) (glycerin phase prior to emulsification, shear stress of 100 Pa and 25° C., 2 degree cone and plate, 52 micron gap): 0 Pa
- extensional viscosity (inferred from first normal stress difference): no extensional viscosity
SMILES: OCC(O)CO [Glycerin (100%), Glycerin]
